In US20040219173A1, “METHOD FOR TREATING HIV” (priority 2000, published 2004):
Like-named read-outs stand apart in the source and are kept apart here.

Tests used:
[1] = Complications from use of the NaCl tablets in the test subjects; format: in vivo, human; settings: Example II, 12 subjects, 250 mg tablets
Protocol: 12 representative persons would be treated by the inventive method, but with a 250 mg tablet of solid NaCI (except certain other ingredients also are incorporated into the tablets, for a total of 250 mg, for test subject nos. 11 and 12, as further discussed below).

[2] = cited from earlier work

## [Cl-].[Na+] [NaCI, sodium chloride]
[1]
  complications from use of the tablets: No complications
[2]; 0°C
  saturation in water: about 35.7 % by weight
[2]; room temperature (72°F, 22.2°C)
  saturation in water: about 32.6 % by weight
